Results reported in US8975417B2, “Pyrazolopyrrolidine derivatives and their use in the treatment of disease” (Novartis AG, priority 2013, dated 2015).
Read-outs that look alike come from different tables or passages of the source.

Legend:
K-562 cells = assay: Cell growth inhibition assay (CellTiter-Glo), K-562; type: cell-based, human
In short: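 Luminescent ATP quantification served as the viability read-out following incubation at 37° C. under 5% CO2. A day-0 reference plate allowed scaling from −100% (medium) to 100% (0.1% DMSO vehicle), with IC50 and TGI fitted by a four-parameter model.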

His-Brd3(20-477) = His-Brd3(20-477) (Homo sapiens (Human), UniProt Q15059); assay: TR-FRET in-vitro binding assay for BRD3; conditions: biochemical
In short: (§1)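 Eight-point dilution series tested against in-house His-BRD2(60-472), BRD3(20-477) or BRD4(44-477) (45 nM in dispensed solution) binding acetyl-histone H4 (AcK5,8,12,16; 60 nM in dispensed solution). Incubation 35 min at 30 °C, pH 7.5 HEPES buffer; detection by TR-FRET using Eu-anti-His6 and streptavidin-allophycocyanin.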

His-Brd2(60-472) = His-Brd2(60-472) (Homo sapiens (Human), UniProt P25440); assay: TR-FRET in-vitro binding assay for BRD2; conditions: biochemical
In short: as §1

[1] = molecular target: His-CREBBP (1081-1197) bromodomain (Homo sapiens (Human), UniProt Q92793); assay: AlphaScreen in-vitro binding assay for CREBBP; conditions: biochemical
In short: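 Ni-chelate acceptor and streptavidin donor beads (45 µg/mL each, in 50 mM HEPES pH 7.5, 150 mM NaCl, 0.02% BSA) were then added for 60 min at room temperature. IC50 came from 8-point non-linear regression.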

His-Brd4(44-477) = His-Brd4(44-477) (Homo sapiens (Human), UniProt O60885); assay: TR-FRET in-vitro binding assay for BRD4; conditions: biochemical
In short: as §1

[2] = Homo sapiens, K562, read-out: K-562 TGI

Sequence of His-Brd3(20-477) (Q15059 20-477): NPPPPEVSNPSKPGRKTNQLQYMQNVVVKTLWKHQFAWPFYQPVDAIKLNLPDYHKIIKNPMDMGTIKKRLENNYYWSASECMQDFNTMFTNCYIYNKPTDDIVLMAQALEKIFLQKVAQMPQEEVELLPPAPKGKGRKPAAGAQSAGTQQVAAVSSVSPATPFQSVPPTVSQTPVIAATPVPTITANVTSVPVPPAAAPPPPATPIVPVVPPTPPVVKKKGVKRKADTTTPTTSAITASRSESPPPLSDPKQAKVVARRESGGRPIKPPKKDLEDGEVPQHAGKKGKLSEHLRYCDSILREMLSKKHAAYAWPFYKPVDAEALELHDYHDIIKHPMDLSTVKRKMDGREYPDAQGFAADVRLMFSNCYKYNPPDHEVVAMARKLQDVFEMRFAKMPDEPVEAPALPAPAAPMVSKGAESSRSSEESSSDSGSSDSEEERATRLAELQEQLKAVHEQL
Sequence of His-Brd2(60-472) (P25440 60-472): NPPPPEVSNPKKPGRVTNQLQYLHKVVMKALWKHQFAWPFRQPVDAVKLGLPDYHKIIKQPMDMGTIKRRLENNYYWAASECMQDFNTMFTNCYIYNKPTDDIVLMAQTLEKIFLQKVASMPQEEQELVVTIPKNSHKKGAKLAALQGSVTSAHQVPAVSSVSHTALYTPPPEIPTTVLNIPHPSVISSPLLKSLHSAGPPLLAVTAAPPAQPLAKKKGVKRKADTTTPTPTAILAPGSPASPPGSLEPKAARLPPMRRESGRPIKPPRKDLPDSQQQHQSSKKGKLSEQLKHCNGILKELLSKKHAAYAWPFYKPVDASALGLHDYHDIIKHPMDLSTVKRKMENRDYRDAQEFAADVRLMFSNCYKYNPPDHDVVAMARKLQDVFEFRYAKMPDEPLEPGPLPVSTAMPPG
Sequence of His-CREBBP (1081-1197) bromodomain (Q92793 1081-1197): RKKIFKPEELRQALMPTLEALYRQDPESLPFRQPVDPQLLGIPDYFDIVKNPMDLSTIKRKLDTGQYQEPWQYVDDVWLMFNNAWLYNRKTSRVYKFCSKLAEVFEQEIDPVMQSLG

| SMILES | IC50 (His-Brd3(20-477)) [nM] | IC50 (His-Brd2(60-472)) [nM] | IC50 [1] [nM] | IC50 (His-Brd4(44-477)) [nM] | IC (total growth inhibition) (K-562 cells; [2]) [µM] | IC (total growth inhibition) (K-562 cells; read-out: K-562 TGI) [µM] |
| --- | --- | --- | --- | --- | --- | --- |
| COc1ncc(-n2nc(C)c3c2C(=O)N(c2cc(C)c(=O)n(C)c2)C3c2ccc(Cl)cc2)c(OC)n1 (racemic) [Example 52, 4-(4-chlorophenyl)-1-(2,4-dimethoxypyrimidin-5-yl)-5-(1,5-dimethyl-6-oxo-1,6-dihydropyridin-3-yl)-3-methyl-4,5-dihydropyrrolo[3,4-c]pyrazol-6(1H)-one] | 69 | 63 | 5700 | 87 | – | >10 |
| Cc1nn(C2CC2)c2c1C(c1ccc(OC(F)(F)F)cc1)N(c1cc(C)c(=O)n(C)c1)C2=O (centres unmarked) [Example 95, 1-cyclopropyl-5-(1,5-dimethyl-6-oxo-1,6-dihydropyridin-3-yl)-3-methyl-4-(4-(trifluoromethoxy)phenyl)-4,5-dihydropyrrolo[3,4-c]pyrazol-6(1H)-one] | 73 | 63 | 7700 | 64 | > 10 | – |
| COc1ncc(-n2nc(C)c3c2C(=O)N(c2cc(C)c(=O)n(C)c2)[C@@H]3c2ccc(Cl)cc2)c(OC)n1 [Example 100, (R)-4-(4-chlorophenyl)-1-(2,4-dimethoxypyrimidin-5-yl)-5-(1,5-dimethyl-6-oxo-1,6-dihydropyridin-3-yl)-3-methyl-4,5-dihydropyrrolo[3,4-c]pyrazol-6(1H)-one] | 27 | 28 | 4200 | 25 | > 10 | – |
| CCc1nn(CCO)c2c1C(c1ccc(Cl)cc1)N(c1cc(C)c3onc(C)c3c1)C2=O (centres unmarked) [Example 79, 4-(4-chlorophenyl)-5-(3,7-dimethylbenzo[d]isoxazol-5-yl)-3-ethyl-1-(2-hydroxyethyl)-4,5-dihydropyrrolo[3,4-c]pyrazol-6(1H)-one] | 86 | 110 | 11000 | 78 | > 10 | – |
| Cc1cc(N2C(=O)c3nn(C4CC4)c(C)c3C2c2ccc(Cl)cc2)cn2c(C)nnc12 (centres unmarked) [Example 93, 4-(4-chlorophenyl)-2-cyclopropyl-5-(3,8-dimethyl-[1,2,4]triazolo[4,3-a]pyridin-6-yl)-3-methyl-4,5-dihydropyrrolo[3,4-c]pyrazol-6(2H)-one] | 31 | 45 | 3100 | 27 | > 10 | – |
| CCOc1c2c(nn1C)C(=O)N(c1cc(C)c(=O)n(C)c1)C2c1ccc(Cl)cc1 (centres unmarked) [Example 76, 4-(4-chlorophenyl)-5-(1,5-dimethyl-6-oxo-1,6-dihydropyridin-3-yl)-3-ethoxy-2-methyl-4,5-dihydropyrrolo[3,4-c]pyrazol-6(2H)-one] | 100 | 100 | 2900 | 120 | > 10 | – |
| Cc1nn(C2CC2)c2c1[C@@H](c1ccc(Cl)cc1)N(c1cc(C)c(=O)n(C)c1)C2=O [Example 49, (R)-4-(4-chlorophenyl)-1-cyclopropyl-5-(1,5-dimethyl-6-oxo-1,6-dihydropyridin-3-yl)-3-methyl-4,5-dihydropyrrolo[3,4-c]pyrazol-6(1H)-one] | 19 | 15 | 1300 | 17 | > 10 | – |
| Cc1nn(-c2ccnn2C)c2c1[C@@H](c1ccc(Cl)cc1)N(c1cc(C)c3nnc(C)n3c1)C2=O [Example 125, (R)-4-(4-chlorophenyl)-5-(3,8-dimethyl-[1,2,4]triazolo[4,3-a]pyridin-6-yl)-3-methyl-1-(1-methyl-1H-pyrazol-5-yl)-4,5-dihydropyrrolo[3,4-c]pyrazol-6(1H)-one] | 32 | 32 | 21000 | 25 | > 10 | – |
| Cc1ncccc1-n1nc(C)c2c1C(=O)N(c1cc(C)c(=O)n(C)c1)C2c1ccc(Cl)cc1 (centres unmarked) [Example 82, 4-(4-chlorophenyl)-5-(1,5-dimethyl-6-oxo-1,6-dihydropyridin-3-yl)-3-methyl-1-(2-methylpyridin-3-yl)-4,5-dihydropyrrolo[3,4-c]pyrazol-6(1H)-one] | 96 | 97 | 6500 | 68 | > 10 | – |
| Cc1ncccc1-n1nc2c(c1C)C(c1ccc(Cl)cc1)N(c1cc(C)c(=O)n(C)c1)C2=O (centres unmarked) [Example 81, 4-(4-chlorophenyl)-5-(1,5-dimethyl-6-oxo-1,6-dihydropyridin-3-yl)-3-methyl-2-(2-methylpyridin-3-yl)-4,5-dihydropyrrolo[3,4-c]pyrazol-6(2H)-one] | 97 | 120 | 920 | 110 | > 10 | – |
| Cc1nn(-c2cncn2C)c2c1C(c1ccc(Cl)cc1)N(c1cc(C)c(=O)n(C)c1)C2=O (centres unmarked) [Example 83, 4-(4-chlorophenyl)-5-(1,5-dimethyl-6-oxo-1,6-dihydropyridin-3-yl)-3-methyl-1-(1-methyl-1H-imidazol-5-yl)-4,5-dihydropyrrolo[3,4-c]pyrazol-6(1H)-one] | 97 | 120 | 6100 | 91 | > 10 | – |

More lines, main results first:

| IC50 (His-Brd3(20-477)) [nM] | IC50 (His-Brd2(60-472)) [nM] | IC50 [1] [nM] | IC50 (His-Brd4(44-477)) [nM] | SMILES | IC (total growth inhibition) (K-562 cells; [2]) [µM] | IC (total growth inhibition) (K-562 cells; read-out: K-562 TGI) [µM] |
| --- | --- | --- | --- | --- | --- | --- |
| 280 | 210 | > 37000 | 140 | CCc1nn(CCOCC(F)(F)F)c2c1C(c1ccc(Cl)cc1)N(c1cc(OC)c3nnc(C)n3c1)C2=O (centres unmarked) [Example 108, 4-(4-chlorophenyl)-3-ethyl-5-(8-methoxy-3-methyl-[1,2,4]triazolo[4,3-a]pyridin-6-yl)-1-(2-(2,2,2-trifluoroethoxy)ethyl)-4,5-dihydropyrrolo[3,4-c]pyrazol-6(1H)-one] | > 10 | – |
| 130 | 150 | > 37000 | 140 | Cc1nn(C2COC2)c2c1C(c1ccc(Cl)cc1)N(c1cc(C)c(=O)n(C)c1)C2=O (centres unmarked) [Example 135, 4-(4-chlorophenyl)-5-(1,5-dimethyl-6-oxo-1,6-dihydropyridin-3-yl)-3-methyl-1-(oxetan-3-yl)-4,5-dihydropyrrolo[3,4-c]pyrazol-6(1H)-one] | > 10 | – |
| 100 | 92 | > 37000 | 80 | Cc1nn(C2COC2)c2c1C(c1ccc(Cl)cc1)N(c1cc(C)c3nnc(C)n3c1)C2=O (centres unmarked) [Example 137, 4-(4-chlorophenyl)-5-(3,8-dimethyl-[1,2,4]triazolo[4,3-a]pyridin-6-yl)-3-methyl-1-(oxetan-3-yl)-4,5-dihydropyrrolo[3,4-c]pyrazol-6(1H)-one] | > 10 | – |
| 15 | 14 | 1200 | 13 | Cc1nn(C(C)C)c2c1[C@@H](c1ccc(Cl)cc1)N(c1cc(C)c(=O)n(C)c1)C2=O [Example 104, (R)-4-(4-chlorophenyl)-5-(1,5-dimethyl-6-oxo-1,6-dihydropyridin-3-yl)-1-isopropyl-3-methyl-4,5-dihydropyrrolo[3,4-c]pyrazol-6(1H)-one] | > 10 | – |
| 93 | 98 | 3300 | 82 | Cc1cc(N2C(=O)c3nn(C4CN(C)C4)c(C)c3C2c2ccc(Cl)cc2)cn2c(C)nnc12 (centres unmarked) [Example 158, 4-(4-chlorophenyl)-5-(3,8-dimethyl-[1,2,4]triazolo[4,3-a]pyridin-6-yl)-3-methyl-2-(1-methylazetidin-3-yl)-4,5-dihydropyrrolo[3,4-c]pyrazol-6(2H)-one] | > 10 | – |
| 38 | 34 | > 37000 | 39 | Cc1cc(N2C(=O)c3c(c(C4CC4)nn3-c3ccnn3C)C2c2ccc(Cl)cc2)cn2c(C)nnc12 (centres unmarked) [Example 117, 4-(4-chlorophenyl)-3-cyclopropyl-5-(3,8-dimethyl-[1,2,4]triazolo[4,3-a]pyridin-6-yl)-1-(1-methyl-1H-pyrazol-5-yl)-4,5-dihydropyrrolo[3,4-c]pyrazol-6(1H)-one] | > 10 | – |
| 5100 | 4400 | > 37000 | 5700 | COc1ncccc1-n1nc(C)c2c1C(=O)N(c1cc(C)c(=O)n(C)c1)[C@H]2c1ccc(Cl)cc1 [Example 127, (S)-4-(4-chlorophenyl)-5-(1,5-dimethyl-6-oxo-1,6-dihydropyridin-3-yl)-1-(2-methoxypyridin-3-yl)-3-methyl-4,5-dihydropyrrolo[3,4-c]pyrazol-6(1H)-one] | > 10 | – |
| 27 | 27 | > 37000 | 17 | COc1ncccc1-n1nc(C)c2c1C(=O)N(c1cc(C)c3nnn(C)c3n1)C2c1ccc(Cl)cc1 (centres unmarked) [Example 109, 4-(4-chlorophenyl)-5-(3,7-dimethyl-3H-[1,2,3]triazolo[4,5-b]pyridin-5-yl)-1-(2-methoxypyridin-3-yl)-3-methyl-4,5-dihydropyrrolo[3,4-c]pyrazol-6(1H)-one] | > 10 | – |
